Common to all, as to format: in vivo
For assay [1], the system named is Phytophthora parasitica. In words: Control of disease in tobacco plants inoculated with Phytophthora parasitica. As to conditions: 1 μM spray every 15 days for 3 months; for percentage of mortality due to disease: mortality at 3 months. The method, then: (§1) In order to evaluate the effect of the brassinosteroid analogue (25R)-3-hydroxy-C-homo-11-oxa-5-espirostan-12-one and a natural brassinosteroid (brassinolide), on the control of other plant diseases, experiments were conducted with tobacco and tomato plants inoculated with Phytophthora parasitica and Alternaria solani, respectively. Both the natural brassinosteroid as the analogue were applied by spraying at a concentration of 1 μM every 15 days for 3 months. The mortality rate was determined at 3 months. […] Hundred plants were used for each treatment. Untreated plants were used as controls.

The test system of assay [2] is Alternaria solani. Briefly: Control of disease in tomato plants inoculated with Alternaria solani. As to conditions: 1 μM spray every 15 days for 3 months; for percentage of mortality due to disease: mortality at 3 months. The method, then:
as §1

Assay [3] relates to Candidatus ‘Liberibacter asiaticus’. As to conditions: for effect on bacteria levels during the evaluation period: 1 μM spray every 15 days for 6 months, 10 HLB infected citrus plants, FIG. 5.
For assay [4] the test system is unchanged. As to conditions: HLB infected Citrus sinensis treated for one year, FIG. 4A.
Assay [5] relates to genes related to the natural defense mechanism of plants against diseases. Briefly: Identification of new defense genes activated in treated citrus plants by SuperSAGE. As to conditions: Citrus sinensis, 20 μM spray, leaves 1-48 hours, FIG. 2. The method, then: Citrus plants (Citrus sinensis) were treated with the brassinosteroid analogue (25R)-3-hydroxy-C-homo-11-oxa-5-espirostan-12-one at 20 μM. Leaves from five plants were collected at 1, 5, 10, 24 and 48 hours after spray application. Total RNA was extracted from leaves using the RNeasy kit (Qiagen, Valencia, Calif.) according to manufacturer's instructions. The cDNAs were synthesized by using biotinylated oligo-dT primer and reverse transcription kit SuperScript III (Invitrogen, Carlsbad, Calif.) according to manufacturer's instructions. Samples of five citrus plants treated with water and collected during the times listed above were used as control. The identification and characterization of new genes was performed by the construction of two cDNA libraries by the technique of SuperSAGE (Matsumura et al. (2003) PNAS 100: 15718-15723). The control library was the mixture of leaves of plants treated with water at different times and target sample was the mixture of citrus plant leaves treated with the analogue at different times. The new genes related to plant response to the HLB, activated by application of brassinosteroid analogue, were isolated, sequenced and analyzed.

In assay [6] the test system is Candidatus ‘Liberibacter asiaticus’. As to conditions: 1 μM spray twice a month, area with HLB plants and Diaphorina citri, FIG. 7.
The test system is the same in assay [7]. As to conditions: adult plants, natural conditions, 20 mM spray every 15 days, one year, FIG. 3B.
Assay [8] relates to genes related to defense against diseases of citrus plants. In words: Relative expression of defense-related genes in citrus plants by real-time quantitative PCR. As to conditions: Citrus sinensis, 20 μM spray. How it is done:
Citrus plants (Citrus sinensis) were treated with the brassinosteroid analogue (25R)-3-hydroxy-C-homo-11-oxa-5-espirostan-12-one at 20 μM (Iglesias et al. (1998) Synthetic Communications 28: 75-81). Leaves from five plants were collected at 0, 1, 5, 10, 24 and 48 hours after spray application. Total RNA was extracted from leaves using the RNeasy kit (Qiagen, Valencia, Calif.) according to manufacturer's instructions, which includes a DNase treatment. The cDNAs were synthesized by using oligo-dT primer and reverse transcription kit SuperScript III (Invitrogen, Carlsbad, Calif.) according to manufacturer's instructions. The real-time quantitative PCR was performed using a RotorGene 3000 PCR machine (Corbett, Australia) and QuantiTect SYBR Green PCR kit (Qiagen). The reaction conditions in real-time PCR were: an initial denaturation step at 95° C. for 15 min. followed by denaturation at 95° C. for 15 s, an alignment step for 30 s at 60° C. and an extension step for 30 s at 72° C. for 40 cycles. The analysis was carried out using the RotorGene 3000 software (Corbett, Australia) and five replicates were used for each sample. Experiments were repeated twice.

The mark [9] stands for this setting: greenhouse, Citrus sinensis with HLB, 20 μM spray every 15 days, 6 months, FIG. 3A.

Structures are written as SMILES. Read-outs that look alike come from different tables or passages of the source.

On to `CC(C)[C@H](C)[C@@H](O)[C@H](O)[C@@H](C)[C@H]1CC[C@H]2[C@@H]3COC(=O)[C@H]4C[C@H](O)[C@H](O)C[C@]4(C)[C@H]3CC[C@]12C` [brassinolide, reference compound], for which the “effect on incidence of disease” value in assay [1] and in assay [2] was “marked effect in reducing the incidence of diseases” in each case. The “percentage of mortality due to disease” value in assay [1] is 13 percentage; in assay [2] it was 12 percentage. The “effect on bacteria levels during the evaluation period” value in assay [3] is “significant reduction in bacteria levels”.
Regarding `C[C@@H]1CC[C@@]2(OC1)O[C@H]1C[C@H]3[C@@H]4CC[C@H]5CC(O)CC[C@]5(C)[C@H]4OC(=O)C[C@]3(C)[C@H]1[C@@H]2C` (stereo partly drawn) [brassinosteroid analogue, (25R)-3-hydroxy-C-homo-11-oxa-5-espirostan-12-one], the “presence of bacteria in leaves by electron microscopy” value in assay [4] is listed as “presence of bacteria was not observed”. The “effect on incidence of disease” value in assay [1] and in assay [2] was “marked effect in reducing the incidence of diseases” each time. The “percentage of mortality due to disease” value in assay [1] came out at 11 percentage; in assay [2] it was 9 percentage. Moreover, in assay [5], the “activation of new genes identified by SuperSAGE” value was “simultaneously activates genes related to hypersensitive response, salicylic acid and jasmonic acid/ethylene”. In assay [6], the “protection of citrus plants without HLB against infection” value was “protect them against infection from bacteria”. In assay [7], the “significant reduction in bacteria levels, from” value is given as “third months”. Moreover, in assay [7], the “undetectable levels of bacteria reached from months” value amounted to 8 months. The “time of highest expression of the rest of the genes” value in assay [8] (after application) turned out to be 5 h. Besides, the “time of highest level of expression of allene oxide synthase gene” value in assay [8] (after application) came to 24 h. The “activation of all analyzed genes (chitinase, β-1,3-glucanase, glutathione peroxidase, phenylalanine-ammonia lyase, superoxide dismutase, allene oxide synthase)” value in assay [8] (leaves 0-48 hours, FIG. 1) is “activated”. Besides, the “Absolute concentration of the bacterium after 6 months of treatment” value in assay [3] (0.001 μM, spray every 15 days for 6 months) is on record as 522 Copies of the bacteria by reaction; in assay [3] (0.01 μM, spray every 15 days for 6 months), 29 Copies of the bacteria by reaction; in assay [3] (1 μM, spray every 15 days for 6 months) it was 1 Copies of the bacteria by reaction; in assay [3] (5 μM, spray every 15 days for 6 months) it was 0 Copies of the bacteria by reaction; in assay [3] (10 μM, spray every 15 days for 6 months) it was 0 Copies of the bacteria by reaction; in assay [3] (20 μM, spray every 15 days for 6 months), 0 Copies of the bacteria by reaction. In addition, the “Absolute concentration of the bacterium after 6 months of treatment” value in assay [3] (40 μM, spray every 15 days for 6 months) is 0 Copies of the bacteria by reaction; in assay [3] (60 μM, spray every 15 days for 6 months), 0 Copies of the bacteria by reaction. Besides, in assay [3], the “effect on bacteria levels during the evaluation period” value is “significant reduction in bacteria levels”. In addition, the “levels of bacteria, application two times a month and weekly compared with a single application per month” value in assay [3] (1 μM, FIG. 6) is listed as “significantly reduced levels of bacteria, more early”. Moreover, in assay [3] (concentrations of 0.01 and up to 60 μM, spray every 15 days for 6 months), the bacteria levels result is on record as “drastically reduced”. Besides, the “significant reduction in levels of bacteria, from” value in assay [3] (setting [9]) was “second month”. Also, the “undetectable levels of bacteria reached from month” value in assay [3] (setting [9]) stood at 4 month.
